This note sets out measurements from ChEMBL document CHEMBL1201862, “PubChem BioAssay data set” (2004).

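In this assay, cells in 96-well plates receive the compound at five concentrations for 48 hours. Endpoints are linearly interpolated between the surrounding concentrations. The concentration for 50% growth inhibition is given as GI50.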 Active and inactive are the calls of the source. Cut-off read from the data, not from the text of the source: active = GI50 up to about 1.1 µM and inactive = higher. Some results are limits rather than exact numbers.

Among the test systems are Malme-3M; MOLT-4; ACHN; U-251; BT-549; SF-295; OVCAR-5; IGROV-1; NCI/ADR-RES; KM12; OVCAR-4; SW-620; CAKI-1; CCRF-CEM; DU-145; UACC-257; MCF7; SF-268; COLO 205; SK-MEL-2.
Holding throughout (experiment): inhibition of tumour cell growth, NCI panel, 48 h

As to `COc1cc(CNc2nc3ccccc3nc2-c2cccs2)cc(OC)c1OC`, the GI50 in the assay with Malme-3M is 17.9 µM (inactive); with MOLT-4 it was 7.67 µM (inactive); in the assay on ACHN it was 13.9 µM (inactive); in the assay with U-251 it was 27.6 µM (inactive); with BT-549 it was 3.1 µM (inactive); in the assay on SF-295, 33.5 µM (inactive). Further, the GI50 in the assay on OVCAR-5 was 4.19 µM (inactive); with IGROV-1 it was 20.4 µM (inactive); in the assay on NCI/ADR-RES it was 8.24 µM (inactive); with KM12 it was 31.4 µM (inactive); in the assay on OVCAR-4, 2.84 µM (inactive); in the assay with SW-620 it was 36.7 µM (inactive). The GI50 with CAKI-1 was 11.2 µM (inactive); in the assay with CCRF-CEM, 13.1 µM (inactive); in the assay with DU-145 it was 44.4 µM (inactive); with UACC-257 it was 34 µM (inactive); in the assay with MCF7, 21.7 µM (inactive); in the assay on SF-268, > 100 µM (inactive). Besides, the GI50 with COLO 205 is 27.4 µM (inactive).

With `O=C(C=P(c1ccccc1)(c1ccccc1)c1ccccc1)c1ccc(-c2cccc([N+](=O)[O-])c2)s1`, the GI50 was 81.7 µM (inactive) in the assay with Malme-3M; 20.6 µM (inactive) in the assay with MOLT-4; 45.4 µM (inactive) in the assay with ACHN; 75.2 µM (inactive) in the assay with U-251; > 100 µM (inactive) in the assay with BT-549; 47.4 µM (inactive) in the assay on SF-295. The GI50 with OVCAR-5 is > 100 µM (inactive); in the assay on IGROV-1, 50 µM (inactive); in the assay with NCI/ADR-RES, 25.8 µM (inactive); in the assay on KM12, 42 µM (inactive); with OVCAR-4, 31.3 µM (inactive); with SW-620, 38.2 µM (inactive). In addition, the GI50 in the assay on CAKI-1 is 35.2 µM (inactive); in the assay on CCRF-CEM it was 30.6 µM (inactive); with DU-145, > 100 µM (inactive); with MCF7, 29.4 µM (inactive); with SF-268 it was > 100 µM (inactive); with COLO 205, 14 µM (inactive).

Regarding `C=C(C)C1Cc2c(cc(O)c3c(=O)c4c(oc23)C(O)Oc2cc(OC)c(OC)cc2-4)O1` (stereo unspecified), the GI50 with Malme-3M, with MOLT-4, in the assay on ACHN, in the assay with U-251, in the assay with BT-549 and in the assay on SF-295 was > 10 µM (inactive) throughout. The GI50 with OVCAR-5, in the assay on IGROV-1, in the assay on NCI/ADR-RES, in the assay with KM12, in the assay on OVCAR-4 and in the assay with SW-620 was > 10 µM (inactive) throughout. The GI50 in the assay on CAKI-1, with CCRF-CEM, in the assay on DU-145, in the assay on UACC-257, in the assay with MCF7 and in the assay on SF-268 was > 10 µM (inactive) throughout. Besides, the GI50 with COLO 205 was > 10 µM (inactive).

Take `O=[N+]([O-])c1cccc2nnccc12`: the GI50 was 11.9 µM (inactive) in the assay on Malme-3M; 28.4 µM (inactive) in the assay on MOLT-4; 11.7 µM (inactive) in the assay on ACHN; 41.6 µM (inactive) in the assay with U-251; 29.6 µM (inactive) in the assay with BT-549; 42.7 µM (inactive) in the assay on SF-295. Moreover, the GI50 in the assay on SK-MEL-2 was 24.7 µM (inactive); in the assay on OVCAR-5, 63.5 µM (inactive); with IGROV-1, 24.7 µM (inactive); in the assay on NCI/ADR-RES it was 34.1 µM (inactive); in the assay with KM12, 23.7 µM (inactive); in the assay with SW-620, 42 µM (inactive). Further, the GI50 was 34.9 µM (inactive) in the assay on CAKI-1; 38.7 µM (inactive) with DU-145; 16.5 µM (inactive) in the assay on UACC-257; 21.1 µM (inactive) in the assay on MCF7; 25.2 µM (inactive) with SF-268; 13.3 µM (inactive) with COLO 205.

For `CCOP(=O)(OCC)C(F)(F)c1ccc(CC(NC(=O)OC(C)(C)C)C(=O)O)cc1` (stereo unspecified), the GI50 with Malme-3M, in the assay on MOLT-4, in the assay on ACHN, in the assay with U-251, in the assay on BT-549 and in the assay on SF-295 was > 10 µM (inactive) each time. In addition, the GI50 in the assay on OVCAR-5, in the assay with IGROV-1, with NCI/ADR-RES, with KM12, in the assay with OVCAR-4 and in the assay on SW-620 was > 10 µM (inactive) each time. Further, the GI50 with CAKI-1, with CCRF-CEM, in the assay on DU-145, with UACC-257, in the assay on MCF7 and in the assay with SF-268 was > 10 µM (inactive) throughout. The GI50 in the assay on COLO 205 was > 10 µM (inactive).

For the compound `COc1cc(/C=N/N=C2NCCN2)ccc1O`, the GI50 is > 100 µM (inactive) with Malme-3M; > 100 µM (inactive) with MOLT-4; > 100 µM (inactive) in the assay on ACHN; > 100 µM (inactive) in the assay on U-251; > 100 µM (inactive) in the assay with BT-549; 68.5 µM (inactive) in the assay with SF-295. In addition, the GI50 with SK-MEL-2, in the assay on OVCAR-5, in the assay on IGROV-1, in the assay with NCI/ADR-RES, with KM12 and in the assay with OVCAR-4 was > 100 µM (inactive) in each case. In addition, the GI50 with SW-620, with CCRF-CEM, with DU-145, in the assay with UACC-257, with MCF7 and in the assay with SF-268 was > 100 µM (inactive) in each case. The GI50 in the assay on COLO 205 is > 100 µM (inactive).

On to `COC(=O)C1=COC(OC2OC(CO)C(O)C(O)C2O)C2C3CN4CCc5c([nH]c6ccccc56)C4(CC12)O3` (stereo unspecified), for which the GI50 in the assay with Malme-3M, in the assay with MOLT-4, in the assay with ACHN, in the assay on U-251, with BT-549 and in the assay on SF-295 was > 100 µM (inactive) in each case. The GI50 with SK-MEL-2 was > 100 µM (inactive); with OVCAR-5, > 100 µM (inactive); in the assay on IGROV-1, 46.5 µM (inactive); in the assay with NCI/ADR-RES, > 100 µM (inactive); with KM12, > 100 µM (inactive); with OVCAR-4, > 100 µM (inactive). The GI50 in the assay on SW-620 is > 100 µM (inactive); in the assay with CAKI-1 it was < 0.01 µM (active); in the assay with DU-145, > 100 µM (inactive); in the assay with UACC-257 it was > 100 µM (inactive); in the assay with MCF7, > 100 µM (inactive); in the assay on SF-268, 31.9 µM (inactive). Also, the GI50 with COLO 205 was > 100 µM (inactive).

`O=C(/C=C/c1ccc(-c2ccccc2[N+](=O)[O-])o1)NCc1ccc(C(=O)NCCc2ccccc2)cc1`: the GI50 in the assay with Malme-3M, in the assay on MOLT-4, in the assay on ACHN, with U-251, in the assay with BT-549 and with SF-295 was > 100 µM (inactive) in each case. The GI50 was 21.2 µM (inactive) in the assay with SK-MEL-2; > 100 µM (inactive) in the assay with OVCAR-5; > 100 µM (inactive) in the assay on IGROV-1; > 100 µM (inactive) with NCI/ADR-RES; > 100 µM (inactive) in the assay on KM12; > 100 µM (inactive) with OVCAR-4. Besides, the GI50 is > 100 µM (inactive) with SW-620; > 100 µM (inactive) in the assay with CAKI-1; > 100 µM (inactive) in the assay on DU-145; 46.7 µM (inactive) in the assay with UACC-257; > 100 µM (inactive) with MCF7; > 100 µM (inactive) with SF-268. Besides, the GI50 with COLO 205 was > 100 µM (inactive).

For `CCN(CC)c1ccc2cc(C(=O)Nc3cccc4ccccc34)c(=N)oc2c1`, the GI50 in the assay on Malme-3M was 30.5 µM (inactive); with ACHN it was > 100 µM (inactive); in the assay on U-251, 48.4 µM (inactive); with BT-549 it was 24 µM (inactive); in the assay with SF-295 it was 45.5 µM (inactive); with SK-MEL-2 it was > 100 µM (inactive). For the same compound, the GI50 with OVCAR-5 is > 100 µM (inactive); with IGROV-1, > 100 µM (inactive); with NCI/ADR-RES, > 100 µM (inactive); in the assay with KM12, > 100 µM (inactive); with OVCAR-4, > 100 µM (inactive); in the assay with SW-620, 67 µM (inactive). For the same compound, the GI50 in the assay on CAKI-1, with CCRF-CEM, in the assay on DU-145, in the assay with UACC-257, in the assay on MCF7 and in the assay with SF-268 was > 100 µM (inactive) each time. For the same compound, in the assay on COLO 205, the GI50 was > 100 µM (inactive).

Take `COc1ccc2c(c1)CCC1=C/C(=N\NC(N)=O)CCC12C` (stereo unspecified): the GI50 in the assay on Malme-3M, in the assay on MOLT-4, in the assay on ACHN, in the assay with U-251, with BT-549 and in the assay with SF-295 was > 10 µM (inactive) throughout. For the same compound, the GI50 with IGROV-1, in the assay with NCI/ADR-RES, in the assay with KM12, in the assay on OVCAR-4, in the assay with SW-620 and in the assay on CAKI-1 was > 10 µM (inactive) each time. For the same compound, the GI50 in the assay on CCRF-CEM, in the assay with DU-145, in the assay on UACC-257, in the assay with MCF7, in the assay with SF-268 and in the assay with COLO 205 was > 10 µM (inactive) each time.

`NC(=S)N1N=C2c3ccccc3CCC[C@H]2[C@@H]1c1ccccc1`: the GI50 with Malme-3M is 0.488 µM (active); with MOLT-4 it was 0.638 µM (active); with ACHN it was 5.07 µM (inactive); in the assay on U-251, 2.33 µM (inactive); in the assay with BT-549, 0.406 µM (active); in the assay on SF-295, 1.03 µM (active). Also, the GI50 in the assay with SK-MEL-2 was 0.236 µM (active); in the assay on OVCAR-5 it was 9.57 µM (inactive); in the assay with IGROV-1, 2.36 µM (inactive); in the assay on NCI/ADR-RES, 0.348 µM (active); in the assay with KM12, 0.693 µM (active); in the assay with OVCAR-4, 5 µM (inactive). Moreover, the GI50 with SW-620 was 0.385 µM (active); in the assay with CCRF-CEM, 0.528 µM (active); in the assay on DU-145 it was 1.54 µM (inactive); in the assay on UACC-257, 2.21 µM (inactive); in the assay on MCF7 it was 0.472 µM (active); with SF-268, 3 µM (inactive). Also, the GI50 with COLO 205 is 1.67 µM (inactive).
